We go through 19 compounds from patent US10851065B2 (Eisai R&D Management Co., Ltd., priority 2015, dated 2020).

For experiment [1], the system named is MCF7-Y537S cells (MCF7 ER-alpha Y537S mutant). The experiment can be described thus: In vitro proliferation (viability) assay, CellTiter-Glo, MCF7-Y537S cells. It is filed as cell-based. Conditions: Homo sapiens; MCF7-Y537S cells, 6 days, CTG vs day 0; mean ± SD-type spread (n); read-out: GI50 MUT (Y537S). As to the method:
(§1) MCF7 BUS cells (Coser, et al., (2003) PNAS 100(24): 13994-13999) were maintained in Dulbecco's Modified Eagle Medium supplemented with 10% FBS, 4 mM L-glutamine and 1× non-essential amino acids. Lenti-X 293T cells (Clontech, Cat #632180) were routinely cultured in Dulbecco's Modified Eagle Medium supplemented with 10% FBS.
(§2) The QuikChange II XL Site-Directed Mutagenesis Kit (Agilent Technologies, Cat #200523) was used to generate Y537S, Y537C, Y537N and D538G mutations within the ERα exon 8. Wild-type ESR1 cDNA (GeneCopoeia Inc., Cat #GC-A0322, accession no. NM 000125) was used as a template with the following mutagenesis primers (where the underlined nucleotides represent site mutations); Y537S: F-AAGAACGTGGTGCCCCTCTCTGACCTGCTGCTGGAGATG (SEQ ID NO: 1), R-CATCTCCAGCAGCAGGTCAGAGAGGGGCACCACGTTCTT (SEQ ID NO: 2); Y537N: F-AAGAACGTGGTGCCCCTCAATGACCTGCTGCTGGAGATG (SEQ ID NO: 3), R-CATCTCCAGCAGCAGGTCATTGAGGGGCACCACGTTCTT (SEQ ID NO: 4); Y537C: F-AAGAACGTGGTGCCCCTCTGTGACCTGCTGCTGGAGATG (SEQ ID NO: 5), R-CATCTCCAGCAGCAGGTCACAGAGGGGCACCACGTTCTT (SEQ ID NO: 6); D538G: F-AACGTGGTGCCCCTCTATGGCCTGCTGCTGGAGATGCTG (SEQ ID NO: 7), R-CAGCATCTCCAGCAGCAGGCCATAGAGGGGCACCACGTT (SEQ ID NO: 8). WT and mutant ESR1 cDNAs were cloned into the designation lentiviral vector pLenti6.3/V5-Dest (Invitrogen, Cat #V533-06). To make lentivirus, DNAs (WT and mutant ESR1) were co-transfected with packaging plasmids into Lenti-X 293T cells using TransIT (Mirus, Cat #MIR 2700). 48 h post-transfection, virus containing media was filtered and added to MCF7 cells in the presence of 8 µg/ml polybrene overnight. Two days following infection, cells were placed under selection with 10 μg/ml blasticidin for 2 weeks for stable expression.
(§3) MCF7-WT and -Y537S cells were seeded at 1500 cells/well in black-walled 96-well plates (assay plates, Costar, Cat #3904). In parallel, cells were also seeded in a separate 96-well plate (8 wells/cell line, control plate) for which a CTG (CellTiter-Glo® Luminescent Viability Assay, Promega, Cat #G7572) was measured the following day (day 0 reading). The day 0 reading was used for the GI50 calculation at the termination of the experiment. The day following seeding, compounds were added to assay plates. Briefly, a 1:4 serial dilution was prepared in DMSO at 200× final concentration for a total of 10 concentrations (9 dilutions containing compound and one is DMSO only). Serially diluted compounds were pipetted into medium to prepare a compound-medium mix at 10× final concentration. 10 μl of compound-medium mix was added to MCF7-WT and -Y537S cells at 3 wells/concentration (triplicate for each concentration). On day 3, media/compound was removed and replaced with fresh media/compound as described above. On day 6, CTG was measured and compared to day 0 readings from control plate to assess GI50.

Experiment [2] relates to MCF7-WT cells (MCF7 ER-alpha wildtype). Briefly: In vitro proliferation (viability) assay, CellTiter-Glo, MCF7-WT cells. Conditions: Homo sapiens; MCF7-WT cells, 6 days, CTG vs day 0; mean ± SD-type spread (n); read-out: GI50 WT. It is filed as cell-based. As to the method:
as §1, §2, §3

Take `CC/C(=C(/c1ccc(OCCNC/C=C\C(=O)N(C)C)cc1)c1ccc2[nH]ncc2c1)c1ccccc1` [Compound 22, (Z)-4-((2-(4-((E)-1-(1H-indazol-5-yl)-2-phenylbut-1-en-1-yl)phenoxy)ethyl)amino)-N,N-dimethylbut-2-enamide]: the concentration for 50% growth inhibition (GI50) in experiment [1] turned out to be 21.6 ± 0.26 nM; in experiment [2], 2.42 ± 1.95 nM.
As for `CC/C(=C(/c1ccc(OCCNC/C=C/C(=O)N(C)C)cc1)c1ccc2[nH]nc(F)c2c1)c1ccccc1` [Compound 2, (E)-4-((2-(4-((E)-1-(3-fluoro-1H-indazol-5-yl)-2-phenylbut-1-en-1-yl)phenoxy)ethyl)amino)-N,N-dimethylbut-2-enamide], the GI50 amounted to 64.8 ± 37.2 nM in experiment [1] and 5.56 ± 2.84 nM in experiment [2].
Consider `CC/C(=C(/c1ccc(OCCNC/C=C/C(=O)N(C)CCO)cc1)c1ccc2[nH]ncc2c1)c1ccccc1` [Compound 18, (E)-4-((2-(4-((E)-1-(1H-indazol-5-yl)-2-phenylbut-1-en-1-yl)phenoxy)ethyl)amino)-N-(2-hydroxyethyl)-N-methylbut-2-enamide], for which the concentration for 50% growth inhibition (GI50) in experiment [1] turned out to be 21.4 ± 15 nM; in experiment [2], 1.63 ± 1.41 nM.
On to `CC/C(=C(/c1cnc(OCCNC/C=C/C(=O)N(C)C)nc1)c1ccc2[nH]ncc2c1)c1ccccc1` [Compound 38, (E)-4-((2-((5-((Z)-1-(1H-indazol-5-yl)-2-phenylbut-1-en-1-yl)pyrimidin-2-yl)oxy)ethyl)amino)-N,N-dimethylbut-2-enamide], for which the concentration for 50% growth inhibition (GI50) stood at 159 ± 128 nM in experiment [1] and 8.23 ± 5.32 nM in experiment [2].
As to `CC/C(=C(/c1ccc(OCCNC/C=C/C(=O)N(C)C)cc1)c1ccc2[nH]ncc2c1)c1ccccc1C` [Compound 36, (E)-4-((2-(4-((E)-1-(1H-indazol-5-yl)-2-(o-tolyl)but-1-en-1-yl)phenoxy)ethyl)amino)-N,N-dimethylbut-2-enamide], the 50% growth inhibitory concentration (GI50) in experiment [1] is 25 ± 21.9 nM; in experiment [2], 4.96 ± 3.1 nM.
In the case of `CC/C(=C(/c1ccc(OCCNC/C=C/C(=O)N(C)C)cc1)c1ccc2[nH]ncc2c1)c1ccccc1CC` [Compound 35, (E)-4-((2-(4-((E)-2-(2-ethylphenyl)-1-(1H-indazol-5-yl)but-1-en-1-yl)phenoxy)ethyl)amino)-N,N-dimethylbut-2-enamide], the GI50 in experiment [1] worked out at 47.8 ± 15.6 nM; in experiment [2] it was 6.22 ± 0.58 nM.
Take `CC/C(=C(/c1ccc(OCCNC/C=C/C(=O)N(C)C)c(F)c1)c1ccc2[nH]nc(F)c2c1)c1ccccc1` [Compound 49, (E)-4-((2-(2-fluoro-4-((Z)-1-(3-fluoro-1H-indazol-5-yl)-2-phenylbut-1-en-1-yl)phenoxy)ethyl)amino)-N,N-dimethylbut-2-enamide]: the figures for the GI50 in experiment [1] and in experiment [2] were 288 nM and 5.4 nM, respectively.
`CC/C(=C(/c1ccc(OCCNC/C=C/C(=O)N(C)C)cc1)c1ccc2[nH]ncc2c1F)c1ccc(F)cc1Cl` [Compound 57, (E)-4-((2-(4-((E)-2-(2-chloro-4-fluorophenyl)-1-(4-fluoro-1H-indazol-5-yl)but-1-en-1-yl)phenoxy)ethyl)amino)-N,N-dimethylbut-2-enamide]: the values for the GI50 in experiment [1] and in experiment [2] were 36.2 nM and 1.9 nM, respectively.
As to `CC/C(=C(/c1ccc(OCCNC/C=C/C(=O)N(C)C)cc1)c1ccc2[nH]nc(F)c2c1)c1ccncc1F` [Compound 81, (E)-4-((2-(4-((E)-1-(3-fluoro-1H-indazol-5-yl)-2-(3-fluoropyridin-4-yl)but-1-en-1-yl)phenoxy)ethyl)amino)-N,N-dimethylbut-2-enamide], the GI50 in experiment [1] turned out to be 13 nM; in experiment [2], 0.3 nM.
Regarding `CC/C(=C(/c1ccc(OCCNC/C=C/C(=O)N(C)C)cc1)c1ccc2[nH]nc(F)c2c1)c1ccccc1Cl` [Compound 73, (E)-4-((2-(4-((E)-2-(2-chlorophenyl)-1-(3-fluoro-1H-indazol-5-yl)but-1-en-1-yl)phenoxy)ethyl)amino)-N,N-dimethylbut-2-enamide], the values for the 50% growth inhibitory concentration (GI50) in experiment [1] and in experiment [2] were 40.5 nM and 1.7 nM, respectively.
On the same counts, the results for `CC/C(=C(/c1ccc(OCCNC/C=C/C(=O)N(C)CCO)cc1)c1ccc2[nH]ncc2c1)c1ccccc1C` [Compound 26, (E)-4-((2-(4-((E)-1-(1H-indazol-5-yl)-2-(o-tolyl)but-1-en-1-yl)phenoxy)ethyl)amino)-N-(2-hydroxyethyl)-N-methylbut-2-enamide] are 32.5 ± 16.7 nM and 2.18 ± 0.87 nM.
On the same counts, the results for `CN(C)C(=O)/C=C/CNCCOc1ccc(/C(=C(\c2ccccc2)C2CCC2)c2ccc3[nH]nc(F)c3c2)cc1` [Compound 14, (E)-4-((2-(4-((E)-2-cyclobutyl-1-(3-fluoro-1H-indazol-5-yl)-2-phenylvinyl)phenoxy)ethyl)amino)-N,N-dimethylbut-2-enamide 2,2,2-trifluoro acetate] are 30.7 ± 4.02 nM and 2.46 ± 1.43 nM.
With `CCCN(C)C(=O)/C=C/CNCCOc1ccc(/C(=C(/CC)c2ccccc2)c2ccc3[nH]ncc3c2)cc1` [Compound 17, (E)-4-((2-(4-((E)-1-(1H-indazol-5-yl)-2-phenylbut-1-en-1-yl)phenoxy)ethyl)amino)-N-methyl-N-propylbut-2-enamide], the 50% growth inhibitory concentration (GI50) turned out to be 25.2 nM in experiment [1] and 2.18 nM in experiment [2].
With `CC/C(=C(/c1ccc(OCCNC/C=C/C(=O)N(C)C)cc1)c1ccc2[nH]nc(F)c2c1)c1cc(F)ccc1F` [Compound 80, (E)-4-((2-(4-((E)-2-(2,5-difluorophenyl)-1-(3-fluoro-1H-indazol-5-yl)but-1-en-1-yl)phenoxy)ethyl)amino)-N,N-dimethylbut-2-enamide], the GI50 in experiment [1] turned out to be 33.6 nM; in experiment [2], 2 nM.
On the same counts, the results for `CC/C(=C(/c1ccc(OCCNC/C=C/C(=O)N(C)C)cc1)c1ccc2[nH]nc(F)c2c1)c1cccnc1` [Compound 51, (E)-4-((2-(4-((E)-1-(3-fluoro-1H-indazol-5-yl)-2-(pyridin-3-yl)but-1-en-1-yl)phenoxy)ethyl)amino)-N,N-dimethylbut-2-enamide] are 347 nM and 20.9 nM.
Take `CN(C)C(=O)/C=C/CNCCOc1ccc(/C(=C(/CC(F)(F)F)c2ccc(F)cc2Cl)c2ccc3[nH]nc(F)c3c2)cc1` [Compound 87, (E)-4-((2-(4-((E)-2-(2-chloro-4-fluorophenyl)-4,4,4-trifluoro-1-(3-fluoro-1H-indazol-5-yl)but-1-en-1-yl)phenoxy)ethyl)amino)-N,N-dimethylbut-2-enamide]: the figures for the GI50 in experiment [1] and in experiment [2] were 21.9 nM and 0.25 nM, respectively.
As to `O=C(/C=C/CNCCOc1ccc(/C(=C(\c2ccccc2)C2CCC2)c2ccc3[nH]ncc3c2)cc1)N1CCC1` [Compound 39, (E)-1-(azetidin-1-yl)-4-((2-(4-((E)-2-cyclobutyl-1-(1H-indazol-5-yl)-2-phenylvinyl)phenoxy)ethyl)amino)but-2-en-1-one], the GI50 in experiment [1] worked out at 31.8 ± 4.85 nM; in experiment [2], 1.79 ± 0.47 nM.
On the same counts, the results for `CN(CCO)C(=O)/C=C/CNCCOc1ccc(/C(=C(\c2ccccc2)C2CCC2)c2ccc3[nH]ncc3c2)cc1` [Compound 41, (E)-4-((2-(4-((E)-2-cyclobutyl-1-(1H-indazol-5-yl)-2-phenylvinyl)phenoxy)ethyl)amino)-N-(2-hydroxyethyl)-N-methylbut-2-enamide] are 66.3 nM and 3.84 nM.
For the compound `CC/C(=C(/c1ccc(OCCNC/C=C/C(=O)N(C)C)cc1)c1cc2c(F)n[nH]c2cc1F)c1ccccc1` [Compound 66, (E)-4-((2-(4-((E)-1-(3,6-difluoro-1H-indazol-5-yl)-2-phenylbut-1-en-1-yl)phenoxy)ethyl)amino)-N,N-dimethylbut-2-enamide], the results for the GI50 in experiment [1] and in experiment [2] were 827 nM and 32.1 nM, respectively.
